Laboratory results: publication PMC7005646, “Overcoming resistance to anabolic SARM therapy in experimental cancer cachexia with an HDAC inhibitor” (EMBO Molecular Medicine, 2020)

Columns and labels:
class I HDACs = assay: In vitro HDAC inhibition assay, class I isoforms; assay type: biochemical, human; settings: 1 μM AR‐42; range over isoforms
Procedure: HDAC activity was measured by a commercial vendor using human recombinant HDAC enzymes and fluorogenic HDAC substrates (Eurofins Cerep SA, Celle L'Evescault, France). Substrate concentrations ranged from 20 to 400 μM, and incubation conditions ranged from 10 to 90 min (RT or 37°C), depending on isoform. Results are expressed as percent inhibition of control specific activity in the presence of 1 μM AR‐42.

C‐26 tumor‐bearing mice [1] = assay: Initial AR‐42/GTx‐024 combination study (Study 1), male C‐26 tumor‐bearing mice; assay type: in vivo, mouse; settings: Study 1, male, GTx‐024 15 mg/kg, AR‐42 10 mg/kg, or both
C‐26 tumor‐bearing mice [2] = assay: AR‐42 dose–response study in the C‐26 cachexia model; assay type: in vivo, mouse
Procedure: (§1) These studies were performed as previously described (Tseng et al, 2015a) with modifications. Tumors were established in the right flank of CD2F1 mice by subcutaneous injection of C‐26 cells (0.5 × 10^6 cells in 0.1 ml). […] TFM‐4AS‐1 (a potent experimental SARM), DHT, and vehicles were administered by subcutaneous injection.
Therefore the efficacy and associated exposures of reduced doses of AR‐42 were determined. Male CD2F1 mice were stratified by body weight and then randomly assigned into five groups of six animals each. C‐26 tumors were established in four of the groups, while those in the fifth group, serving as tumor‐free controls, were injected with sterile saline. Six days later, animals with palpable tumors were treated with AR‐42 once daily at 10 (n = 5) and 20 mg/kg (n = 6), and every other day at 50 mg/kg (n = 5, the originally described anti‐cachectic dose; Tseng et al, 2015a), or vehicle control (n = 4) for 13 days. Upon sacrifice on study day 18, when the majority of tumor‐bearing control mice met euthanasia criteria, the left gastrocnemius muscle was excised, flash‐frozen in liquid nitrogen, and stored at −80°C for subsequent analyses. Carcass weights were corrected for tumor weight by assuming a tumor density equivalent to water (1 g/cm^3). […] This study was performed as described above with animals treated with AR‐42 once daily at 1, 3, and 10 mg/kg or with vehicle control (n = 8).

LLC tumor‐bearing mice = assay: AR‐42/GTx‐024 combination study in the LLC cachexia model (Study 5); assay type: in vivo, mouse; settings: repeat of Study 5; 10 mg/kg AR‐42, 0.5 mg/kg GTx‐024, or both
Procedure: This study was performed as previously described (Tseng et al, 2015a) with modifications. Tumors were established in the right hindlimb of male C57BL/6NHsd mice by intramuscular injection of LLC cells (0.5 × 10^6 cells in 0.05 ml). Similar to Study 3, the tumor‐free control group was maintained at six animals, whereas 12 animals were included in each of the tumor‐bearing groups. […] Grip strength, body weight, and food consumption were measured, and tissues were collected as in the previous C‐26 studies.

C‐26 tumor‐bearing mice [3] = assay: Confirmatory AR‐42/GTx‐024 combination study (Study 2), male C‐26 tumor‐bearing mice; assay type: in vivo, mouse
Procedure: as §1
This confirmatory study was performed exactly as Study 1 with expanded animal numbers. Tumor‐free control groups were maintained at 6 animals each, whereas 10 animals were included in each of the tumor‐bearing groups. […] Grip strength was measured on study days 0 (baseline) and 16. Due to rapid model progression, this study was terminated on day 17 after only 12 days of treatment.
Forelimb grip strength was measured using Bio‐GS3 Grip Strength Test Meter (Forceleader DBA Bioseb, Pinellas Park, FL). Each mouse was held by the base of its tail and lowered over the apparatus until its forepaws grasped the metal pull bar. The mouse was then gently pulled horizontally in a straight line away from the grip strength meter until the mouse released the bar. The force applied to the bar at the moment of release was recorded as the peak force. Five measurements were taken from each mouse, the average of which was designated as the mouse's grip strength.

pSTAT3 in C‐26 tumors = assay: Phospho‐STAT3/STAT3 ELISA in C‐26 tumor tissues, Study 2; assay type: in vivo, mouse; settings: Study 2, 10 mg/kg
Procedure: Expression of phospho‐STAT3 and total STAT3 in C‐26 tumor tissues was measured using commercial sandwich ELISA kits according to the manufacturer's instructions (PathScan® Phospho‐Stat3, #7300, and Total Stat3, #7305, Cell Signaling Technology, Danvers, MA).

[4] = AR‐42 plasma and tissue pharmacokinetics, single oral dose, tumor‐free CD2F1 mice; assay type: in vivo, mouse; settings: for Plasma exposure: mouse
Procedure: Pharmacokinetic studies were performed as previously described (Cheng et al, 2016) with the following modifications. Seven week‐old, male, tumor‐free CD2F1 mice (n = 3 per dose and time point) were administered single oral doses of 10, 20, and 50 mg/kg AR‐42 and then sacrificed 0.25, 4, and 24 h later. Fifty milligrams of gastrocnemius muscle tissue was flash‐frozen in 2 ml BeadBlaster™ 24 (MIDSCI; St. Louis, MO) tubes and stored at −80°C. Samples were homogenized for 6 cycles using a BeadBlaster 24 with analytical standards in 1 mL methanol and then centrifuged at 15,600 g (4°C) for 10 min. Supernatants were transferred to glass tubes, dried under nitrogen, and then reconstituted in 200 μl 40% methanol/0.1% formic acid. Plasma preparation and LC‐MS/MS analyses were performed as previously described (Sborov et al, 2017). Mouse plasma and muscle pharmacokinetic parameters were estimated as previously described with the exception of Cavg, which was calculated as AUCall/[dosing interval(h)].

[5] = parameters: method as in Sborov et al, 2017; settings: patients; ref Sborov et al, 2017; cited from earlier work
tumor‐free mice = tested on: tumor‐free mice; parameters: method as in Tseng et al, 2015a; settings: ref Tseng et al, 2015a, cited from earlier work
[6] = Study 2, AR‐42 10 mg/kg alone or with GTx‐024 15 mg/kg

**Q.** With CC(C)[C@H](C(=O)Nc1ccc(C(=O)NO)cc1)c1ccccc1 [AR‐42] as the compound, how does the “inhibition of class I HDACs” value (class I HDACs) read?
**A.** Its value is 72–95%.

**Q.** What about the “terminal body weight corrected for tumor mass” value (C‐26 tumor‐bearing mice [1]; day 18, 13 days daily oral) of the same compound?
**A.** The value was 91.2 ± 3.7 % of tumor‐free controls.

**Q.** And the terminal gastrocnemius mass (C‐26 tumor‐bearing mice [1]; day 18)?
**A.** The terminal gastrocnemius mass was 94.3 ± 1.4 % of tumor‐free controls.

**Q.** What about the terminal quadriceps mass (C‐26 tumor‐bearing mice [1]; day 18) of the same compound?
**A.** Its terminal quadriceps mass is 93.2 ± 6.3 % of tumor‐free controls.

**Q.** What about the “minimally efficacious dose (anti‐cachectic)” value (C‐26 tumor‐bearing mice [2]; daily oral, 13 days, C‐26 model) of the same compound?
**A.** Its value is 10 mg/kg.

**Q.** And the “effect on C‐26 tumor‐mediated reductions in tumor‐corrected body weight and gastrocnemius mass” value (C‐26 tumor‐bearing mice [2]; lower doses (1, 3 mg/kg daily))?
**A.** Its value is “not effective”.

**Q.** What about the “effect on C‐26 tumor‐mediated reductions in tumor‐corrected body weight and gastrocnemius mass” value (C‐26 tumor‐bearing mice [2]; thirteen daily oral doses of 20 or 10 mg/kg) of the same compound?
**A.** Its value is “ameliorated”.

**Q.** What about the “response of body weight and skeletal muscle mass loss” value (LLC tumor‐bearing mice) of the same compound?
**A.** The value was “did not respond”.

**Q.** What about the “effect on adipose tissue (epididymal fat pad)” value (C‐26 tumor‐bearing mice [3]; Study 2, 10 mg/kg) of the same compound?
**A.** Its value is “no impact on adipose tissue”.

**Q.** What about the “forelimb grip strength over vehicle‐treated tumor‐bearing controls” value (C‐26 tumor‐bearing mice [3]; [6]) of the same compound?
**A.** Its value is “improved grip strength”.

**Q.** And the “gastrocnemius and quadriceps mass relative to GTx‐024 monotherapy” value (C‐26 tumor‐bearing mice [3]; [6])?
**A.** The value was “significantly improved gastrocnemius and quadriceps mass”.

**Q.** What about the “pSTAT3 signaling within the C‐26 tumors” value (pSTAT3 in C‐26 tumors) of the same compound?
**A.** Its value is “did not significantly suppress”.

**Q.** What about the AUCall ([4]; 10 mg/kg oral, Muscle) of the same compound?
**A.** The AUCall was 11,076.7 nM*h.

**Q.** And the Cavg ([4]; 10 mg/kg oral, Muscle)?
**A.** The Cavg was 461.5 nM.

**Q.** What about the Cmax ([4]; 10 mg/kg oral, Muscle) of the same compound?
**A.** Its Cmax is 1.11 µM.

**Q.** And the AUCall ([4]; 10 mg/kg oral, Plasma)?
**A.** Its AUCall is 10,931.6 nM*h.

**Q.** And the Cmax ([4]; 10 mg/kg oral, Plasma)?
**A.** Its Cmax is 1.5 µM.

**Q.** And the Cavg ([4]; 10 mg/kg oral, Plasma, AUCall/dosing interval)?
**A.** Its Cavg is 455.5 nM.

**Q.** What about the gastrocnemius muscle concentration ([4]; 10 mg/kg oral, remained above for 4 h) of the same compound?
**A.** The gastrocnemius muscle concentration was “above 700 nM”.

**Q.** And the AUCall ([4]; 20 mg/kg oral, Muscle)?
**A.** Its AUCall is 36,504.2 nM*h.

**Q.** And the Cavg ([4]; 20 mg/kg oral, Muscle)?
**A.** Its Cavg is 1,521.0 nM.

**Q.** What about the Cmax ([4]; 20 mg/kg oral, Muscle) of the same compound?
**A.** The Cmax was 3.66 µM.

**Q.** And the AUCall ([4]; 20 mg/kg oral, Plasma)?
**A.** The AUCall was 34,369.3 nM*h.

**Q.** What about the Cavg ([4]; 20 mg/kg oral, Plasma) of the same compound?
**A.** Its Cavg is 1,432.1 nM.

**Q.** What about the Cmax ([4]; 20 mg/kg oral, Plasma) of the same compound?
**A.** The Cmax was 3.86 µM.

**Q.** And the AUCall ([4]; 50 mg/kg oral, Muscle)?
**A.** Its AUCall is 72,624.7 nM*h.

**Q.** What about the Cavg ([4]; 50 mg/kg oral, Muscle) of the same compound?
**A.** Its Cavg is 3,026.2 nM.

**Q.** And the Cmax ([4]; 50 mg/kg oral, Muscle)?
**A.** The Cmax was 6.37 µM.

**Q.** What about the AUCall ([4]; 50 mg/kg oral, Plasma) of the same compound?
**A.** The AUCall was 74,307.3 nM*h.

**Q.** What about the Cavg ([4]; 50 mg/kg oral, Plasma) of the same compound?
**A.** Its Cavg is 3,096.1 nM.

**Q.** What about the Cmax ([4]; 50 mg/kg oral, Plasma) of the same compound?
**A.** Its Cmax is 7.93 µM.

**Q.** What about the “mouse plasma exposure at 50 mg/kg over well‐tolerated human exposure” value ([4]; 74.3 vs 8.5 μM*h) of the same compound?
**A.** Its value is 8.7 fold.

**Q.** And the Plasma exposure ([4]; single oral dose 10 mg/kg)?
**A.** Its Plasma exposure is 10.9 µM·h.

**Q.** What about the Plasma exposure ([4]; single oral dose 50 mg/kg) of the same compound?
**A.** The Plasma exposure was 74.3 µM·h.

**Q.** What about the “well‐tolerated plasma exposure in humans” value [5] of the same compound?
**A.** The value was 8.5 µM·h.

**Q.** What about the “maximally tolerated dose in mice” value (tumor‐free mice; oral gavage every other day) of the same compound?
**A.** The value was 50 mg/kg.

**Q.** And the “effect on lower limb skeletal muscle masses relative to controls” value (tumor‐free mice; tumor‐free mice, 50 mg/kg every other day)?
**A.** Its value is “no significant effects on lower limb skeletal muscle masses”.

**Q.** And the “reduction in epididymal adipose tissue masses” value (tumor‐free mice; tumor‐free mice, 50 mg/kg oral every other day)?
**A.** Its value is about 50%.
